From PMC11910321, “Evolutionary scenarios for the specific recognition of nonhomologous endogenous peptides by G protein–coupled receptor paralogs” (The Journal of Biological Chemistry, 2024)
Where “and” joins values, the source holds several entries; their conditions need not be identical. Equal values may be shown once. No end group written: not given here.

Legend:
Type in all cases: cell-based
[1] = target: T1, (I3.24F, W4.61G)-MRGPRX1 (Homo sapiens, UniProt Q96LB2, I94F/W158G); experiment: Intracellular Ca2+ mobilization in COS-7 cells, Gαq16-fused receptor, (I3.24F, W4.61G)-MRGPRX1
T1 construct: host or cells: COS-7
T1 sequence (Q96LB2 whole entry I94F/W158G, the tested form may be a part): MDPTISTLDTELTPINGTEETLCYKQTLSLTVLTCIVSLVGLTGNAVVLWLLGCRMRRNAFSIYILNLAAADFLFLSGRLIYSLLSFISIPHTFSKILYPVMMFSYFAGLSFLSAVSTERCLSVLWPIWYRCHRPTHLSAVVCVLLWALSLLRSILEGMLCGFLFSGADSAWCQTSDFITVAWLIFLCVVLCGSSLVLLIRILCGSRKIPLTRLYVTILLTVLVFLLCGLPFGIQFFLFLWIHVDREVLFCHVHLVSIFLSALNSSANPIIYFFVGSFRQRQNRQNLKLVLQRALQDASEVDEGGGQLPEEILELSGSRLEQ
Description: (§1) ORFs of MRGPRX1 and MRGPRX2 purchased from OriGene and Mm-MRGPRX1 synthesized in Genscript were C-terminally fused with the human Gαq16 protein as described previously ([23]). Briefly, the human Gαq16 ORF clone (OriGene) was amplified and ligated into the XbaI site of a pcDNA6 plasmid (Invitrogen). Then, MRGPRX1 and MRGPRX2 were subcloned (Table S1) into the NotI–XbaI site of the Gαq16-ligated pcDNA6 plasmids. MRGPRX1 and two mutants were constructed using the PrimeSTAR Mutagenesis Basal Kit with mutation oligos (Table S1).
(§2) COS-7 cells were purchased from American Type Culture Collection and cultured in Dulbecco's modified Eagle's medium (Nacalai Tesque) supplemented with 10% fetalbovine serum (Sigma) and maintained at 37°C under 5% CO2. Intracellular Ca^2+ mobilization was measured as previously described ([42], [43]). In brief, 5 × 10^5 COS-7 cells were spread on a 60-mm dish 1 day before transfection. About 10 μg of GPCR expression vector were transfected into the cells using Lipofectamine 2000 (Thermo Fisher Scientific) according to the manufacturer’s instructions. After the 24-h incubation, 6 × 10^4 cells per well were respread on a 96-well plate for the following assay. Each MRGPRX mutant fused with human Gαq16 for expression at the cell membrane was confirmed by immunostaining using the anti-Gαq16 antibody (Ori Gene TA318890) (Fig. S5). SP (PEPTIDE […]) and BAM8–22 (Tocris Bioscience) were used for the assays. Real-time Ca^2+ mobilization of Gαq16-fused MRGPRX1/2 was measured using a Ca5 kit (Molecular Devices) and FlexStation III according to the manufacturer’s instructions. The calcium accumulation data were analyzed using Prism, version 6 (GraphPad) and found to fit a sigmoidal concentration–response curve, and the means ± SEMs of EC50 were calculated.

[2] = target: (I3.24F, W4.61G)-Mm-MRGPRX1 (Macaca mulatta, UniProt A0A5F7ZSN8, I94F/W158G); experiment: Intracellular Ca2+ mobilization in COS-7 cells, Gαq16-fused receptor, (I3.24F, W4.61G)-Mm-MRGPRX1; settings: SP
(I3.24F, W4.61G)-Mm-MRGPRX1, sequence (A0A5F7ZSN8 1-322 I94F/W158G): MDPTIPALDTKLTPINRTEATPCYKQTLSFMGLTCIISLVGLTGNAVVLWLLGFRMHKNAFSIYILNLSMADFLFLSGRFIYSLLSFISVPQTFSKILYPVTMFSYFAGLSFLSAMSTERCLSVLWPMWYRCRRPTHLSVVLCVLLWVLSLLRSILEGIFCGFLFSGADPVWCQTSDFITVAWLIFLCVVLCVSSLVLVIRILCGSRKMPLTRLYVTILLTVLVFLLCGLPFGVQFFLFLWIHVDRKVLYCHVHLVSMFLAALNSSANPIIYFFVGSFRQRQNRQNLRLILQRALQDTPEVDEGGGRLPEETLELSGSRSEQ
Description: as §1
(§3) COS-7 cells were purchased from American Type Culture Collection and cultured in Dulbecco's modified Eagle's medium (Nacalai Tesque) supplemented with 10% fetalbovine serum (Sigma) and maintained at 37°C under 5% CO2. Intracellular Ca^2+ mobilization was measured as previously described ([42], [43]). In brief, 5 × 10^5 COS-7 cells were spread on a 60-mm dish 1 day before transfection. […] Real-time Ca^2+ mobilization of Gαq16-fused MRGPRX1/2 was measured using a Ca5 kit (Molecular Devices) and FlexStation III according to the manufacturer’s instructions. The calcium accumulation data were analyzed using Prism, version 6 (GraphPad) and found to fit a sigmoidal concentration–response curve, and the means ± SEMs of EC50 were calculated.

[3] = target: T2, (L1.35P, I3.24F, W4.61G)-MRGPRX1 (Homo sapiens, UniProt Q96LB2, I94F/L30P/W158G); experiment: Intracellular Ca2+ mobilization in COS-7 cells, Gαq16-fused receptor, (L1.35P, I3.24F, W4.61G)-MRGPRX1
T2 construct: host or cells: COS-7
T2 sequence (Q96LB2 whole entry L30P/I94F/W158G, the tested form may be a part): as the sequence (Q96LB2 whole entry I94F/W158G, the tested form may be a part) above, with L30P counted along it
Description: as §1, §2

[4] = target: T3, (P1.35L)-MRGPRX2 (Homo sapiens, UniProt Q96LB1, P33L); experiment: Intracellular Ca2+ mobilization in COS-7 cells, Gαq16-fused receptor, (P1.35L)-MRGPRX2; settings: COS-7, Ca2+ mobilization
T3 construct: host or cells: COS-7
T3 sequence (Q96LB1 1-330 P33L): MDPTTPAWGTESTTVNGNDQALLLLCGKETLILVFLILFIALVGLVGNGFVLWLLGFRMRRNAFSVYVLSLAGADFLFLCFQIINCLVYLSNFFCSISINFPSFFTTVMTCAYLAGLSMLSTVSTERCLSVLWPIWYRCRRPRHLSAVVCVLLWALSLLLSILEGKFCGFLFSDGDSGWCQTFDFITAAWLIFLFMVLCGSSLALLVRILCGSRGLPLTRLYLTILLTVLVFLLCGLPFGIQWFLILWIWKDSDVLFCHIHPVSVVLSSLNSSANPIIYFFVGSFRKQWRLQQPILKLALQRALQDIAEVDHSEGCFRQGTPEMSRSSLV
Description: COS-7 cells were purchased from American Type Culture Collection and cultured in Dulbecco's modified Eagle's medium (Nacalai Tesque) supplemented with 10% fetalbovine serum (Sigma) and maintained at 37°C under 5% CO2. Intracellular Ca^2+ mobilization was measured as previously described ([42], [43]). In brief, 5 × 10^5 COS-7 cells were spread on a 60-mm dish 1 day before transfection. About 10 μg of GPCR expression vector were transfected into the cells using Lipofectamine 2000 (Thermo Fisher Scientific) according to the manufacturer’s instructions. After the 24-h incubation, 6 × 10^4 cells per well were respread on a 96-well plate for the following assay. […] Real-time Ca^2+ mobilization of Gαq16-fused MRGPRX1/2 was measured using a Ca5 kit (Molecular Devices) and FlexStation III according to the manufacturer’s instructions. The calcium accumulation data were analyzed using Prism, version 6 (GraphPad) and found to fit a sigmoidal concentration–response curve, and the means ± SEMs of EC50 were calculated.

[5] = target: T4, Mm-MRGPRX1 WT (Macaca mulatta, UniProt A0A5F7ZSN8); experiment: Intracellular Ca2+ mobilization in COS-7 cells, Gαq16-fused receptor, intact Mm-MRGPRX1; settings: BAM8–22
T4 construct: host or cells: COS-7
T4 sequence (A0A5F7ZSN8 1-322): as the sequence (A0A5F7ZSN8 1-322 I94F/W158G) above, with F94I, G158W counted along it
Description: as §1, §3

[6] = target: T5, (L1.35P)-MRGPRX1 (Homo sapiens, UniProt Q96LB2, L30P); experiment: Intracellular Ca2+ mobilization in COS-7 cells, Gαq16-fused receptor, (L1.35P)-MRGPRX1
T5 construct: host or cells: COS-7
T5 sequence (Q96LB2 whole entry L30P, the tested form may be a part): as the sequence (Q96LB2 whole entry I94F/W158G, the tested form may be a part) above, with L30P, F94I, G158W counted along it
Description: as §1, §3

[7] = target: T6, MRGPRX1 WT (Homo sapiens, UniProt Q96LB2); experiment: Intracellular Ca2+ mobilization in COS-7 cells, Gαq16-fused receptor, wildtype MRGPRX1; settings: BAM8–22
T6 construct: host or cells: COS-7
T6 sequence (Q96LB2 whole entry, the tested form may be a part): as the sequence (Q96LB2 whole entry I94F/W158G, the tested form may be a part) above, with F94I, G158W counted along it
Description: as §1, §3

[8] = target: (F1.35L)-Mm-MRGPRX1 (Macaca mulatta, UniProt A0A5F7ZSN8, F30L); experiment: Intracellular Ca2+ mobilization in COS-7 cells, Gαq16-fused receptor, (F1.35L)-Mm-MRGPRX1; settings: BAM8–22; COS-7, Ca2+ mobilization; mean ± standard error of three replicate analyses; read-out: Maximal response
(F1.35L)-Mm-MRGPRX1, sequence (A0A5F7ZSN8 1-322 F30L): as the sequence (A0A5F7ZSN8 1-322 I94F/W158G) above, with F30L, F94I, G158W counted along it
Description: as §1, §3

[9] = target: T7, (S1.43A)-MRGPRX1 (Homo sapiens, UniProt Q96LB2, S38A); experiment: Intracellular Ca2+ mobilization in COS-7 cells, Gαq16-fused receptor, (S1.43A)-MRGPRX1; settings: BAM8–22
T7 construct: host or cells: COS-7
T7 sequence (Q96LB2 whole entry S38A, the tested form may be a part): as the sequence (Q96LB2 whole entry I94F/W158G, the tested form may be a part) above, with S38A, F94I, G158W counted along it
Description: as §1, §3

[10] = COS-7, SP, compared with intact MRGPRX2, mean ± standard error of three replicate analyses, read-out: Maximal response (Emax)
[11] = SP, COS-7, Gαq16-fused, Ca2+ mobilization, three replicate analyses
[12] = COS-7, Ca2+ mobilization, mean ± standard error of three replicate analyses, read-out: Maximal response
[13] = COS-7, Gαq16-fused, Ca2+ mobilization, three replicate analyses

Response to 3 μM BAM8–22 [4] | Emax [5, 12] | EC50 [5, 13] | Response to 3 μM BAM8–22, of that of wildtype MRGPRX1 ([6]; 3 μM BAM8–22, COS-7, Ca2+ mobilization) | EC50 ([6]; BAM8–22, COS-7, Gαq16-fused, Ca2+ mobilization, three replicate analyses) | Emax [7, 12] | EC50 [7, 13] | Emax [8] | Emax [9, 12] | EC50 [9, 13] | Compound | EC50 compared with MRGPRX2-SP (in words) ([1]; COS-7, Ca2+ mobilization) | Emax [1, 10] | EC50 [1, 11] | Emax [2, 12] | EC50 [2, 13] | EC50 compared with MRGPRX2-SP (in words) ([3]; COS-7, Ca2+ mobilization) | Emax [3, 10] | EC50 [3, 11]
– | – | – | – | – | – | – | – | – | – | CSCC[C@H](NC(=O)[C@H](CC(C)C)NC(=O)CNC(=O)[C@H](Cc1ccccc1)NC(=O)[C@H](Cc1ccccc1)NC(=O)[C@H](CCC(N)=O)NC(=O)[C@H](CCC(N)=O)NC(=O)[C@@H]1CCCN1C(=O)[C@H](CCCCN)NC(=O)[C@@H]1CCCN1C(=O)[C@@H](N)CCCNC(=N)N)C(N)=O [SP, substance P] | comparable to that of MRGPRX2-SP | 42.1 ± 2.28% | 2240 nM | 100 ± 5.28% | 200 nM and 690 nM | comparable to that of MRGPRX2-SP | 39.5 ± 3% | 1660 nM
30.23 ± 1.08% | 66.5 ± 2.91% | 2570 nM | 48.48 ± 1.08% | 3160 nM | 100 ± 7.78% | 170 nM | 100 ± 1.94% | 102 ± 9.64% | 200 nM | VGRPEWWMDYQKRYG [BAM8–22, bovine adrenal medulla peptide 8–22] | – | – | – | – | – | – | – | –
